# In patent US20060093562A1 (priority 2004, published 2006):
# Like-named read-outs stand apart in the source and are kept apart here.
# Tests used:
# [1] = Foam height test (vortexed paste/gel/water mixture with surfactant); type: physicochemical; details: 1% total surfactant (actives); for Total Height: 1 g surfactant-free paste of Table 1, 1 g surfactant-free gel of Table 2, 6 g water, vortex 1 minute, foam plus liquid underneath; for Liquid Height: volume of liquid underneath the foam, less than 5 mL not quantifiable
# Procedure: The test used 1% total surfactant (actives). The surfactant was added to an aqueous mixture containing 1 g of surfactant-free paste of Table 1, 1 g of the surfactant-free version of the gel of Table 2, and 6 g of water. The mixture, prepared in a centrifuge tube, is placed on a Vortex-Genie 2 (Scientific Industries) on setting 5, and allowed to vortex for 1 minute. The total height measured was the total volume of the foam plus any liquid underneath. The liquid height was the volume of liquid underneath the foam. Liquid volumes of less than 5 mL could not be quantified since the lowest level on the centrifuge tube used to conduct the foam test was 5 mL.
# [2] = type: physicochemical; details: paste of Table 1 with surfactant
Compound,Total Height [1],Liquid Height [1],Phase Behavior ([2]; stored at 100° F.),Phase Behavior ([2]; stored at RT),Saturated solution concentration
"CCCCCCCCCCCCOS(=O)(=O)[O-].[Na+] [SLS, Sodium Lauryl Sulfate]",9 mL,7 mL,Single Phase,Single Phase,
"Sodium Laureth Sulfate, 2 Ether Groups [SLES-2]",9 mL,7 mL,,,
Cocamidopropyl Betaine [CBT],10 mL,7 mL,,,
"CCCCCCCCCCOS(=O)(=O)[O-].[Na+] [SDS, Sodium Decyl Sulfate]",19 mL,<5 mL,,,
"Sodium Laureth Sulfate, 1 Ether Group [SLES-1]",9 mL,7 mL,,,
"Sodium Laureth Sulfate, 3 Ether Groups [SLES-3]",10 mL,7 mL,,,
O=C([O-])O.[Na+] [sodium bicarbonate],,,,,about 3.8%
